Reference: patent US9611267B2, “Substituted tricyclic compounds as FGFR inhibitors” (Incyte Corporation, priority 2012, dated 2017)
pIC50: −log10 of the molar value.

Key:
Assay type in all cases: biochemical
FGFR2 = FGFR2 (Homo sapiens (Human), UniProt P21802); test: FGFR enzymatic assay (FRET peptide phosphorylation), FGFR2; settings: FGFR2 enzyme 0.01 nM, ATP 100 μM
Procedure: (§1) The inhibitor potency of the exemplified compounds was measured in an enzyme assay that measures peptide phosphorylation using FRET measurements to detect product formation. Inhibitors were serially diluted in DMSO and a volume of 0.5 μL was transferred to the wells of a 384-well plate. For FGFR3, a 10 μL volume of FGFR3 enzyme (Millipore) diluted in assay buffer (50 mM HEPES, 10 mM MgCl2, 1 mM EGTA, 0.01% Tween-20, 5 mM DTT, pH 7.5) was added to the plate and pre-incubated for 5-10 minutes. Appropriate controls (enzyme blank and enzyme with no inhibitor) were included on the plate. […] The plate was incubated at 25° C. for 1 hr. […] The plate was allowed to equilibrate for ˜1 hr before scanning the wells on a PheraStar plate reader (BMG Labtech).
(§2) The enzymes were purchased from Millipore or Invitrogen.
(§3) GraphPad prism3 was used to analyze the data. The IC50 values were derived by fitting the data to the equation for a sigmoidal dose-response with a variable slope. Y=Bottom+(Top−Bottom)/(1+10^((LogIC50−X)*HillSlope)) where X is the logarithm of concentration and Y is the response.

FGFR3 = FGFR3 (Homo sapiens (Human), UniProt P22607); test: FGFR enzymatic assay (FRET peptide phosphorylation), FGFR3; settings: FGFR3 enzyme (Millipore), ATP 140 μM
Procedure: as §1, §3

FGFR1 = FGFR1 (Homo sapiens (Human), UniProt P11362); test: FGFR enzymatic assay (FRET peptide phosphorylation), FGFR1; settings: FGFR1 enzyme 0.02 nM, ATP 210 μM
Procedure: as §1, §2, §3

Measured: pIC50

Sequence of FGFR2 (P21802 22-821): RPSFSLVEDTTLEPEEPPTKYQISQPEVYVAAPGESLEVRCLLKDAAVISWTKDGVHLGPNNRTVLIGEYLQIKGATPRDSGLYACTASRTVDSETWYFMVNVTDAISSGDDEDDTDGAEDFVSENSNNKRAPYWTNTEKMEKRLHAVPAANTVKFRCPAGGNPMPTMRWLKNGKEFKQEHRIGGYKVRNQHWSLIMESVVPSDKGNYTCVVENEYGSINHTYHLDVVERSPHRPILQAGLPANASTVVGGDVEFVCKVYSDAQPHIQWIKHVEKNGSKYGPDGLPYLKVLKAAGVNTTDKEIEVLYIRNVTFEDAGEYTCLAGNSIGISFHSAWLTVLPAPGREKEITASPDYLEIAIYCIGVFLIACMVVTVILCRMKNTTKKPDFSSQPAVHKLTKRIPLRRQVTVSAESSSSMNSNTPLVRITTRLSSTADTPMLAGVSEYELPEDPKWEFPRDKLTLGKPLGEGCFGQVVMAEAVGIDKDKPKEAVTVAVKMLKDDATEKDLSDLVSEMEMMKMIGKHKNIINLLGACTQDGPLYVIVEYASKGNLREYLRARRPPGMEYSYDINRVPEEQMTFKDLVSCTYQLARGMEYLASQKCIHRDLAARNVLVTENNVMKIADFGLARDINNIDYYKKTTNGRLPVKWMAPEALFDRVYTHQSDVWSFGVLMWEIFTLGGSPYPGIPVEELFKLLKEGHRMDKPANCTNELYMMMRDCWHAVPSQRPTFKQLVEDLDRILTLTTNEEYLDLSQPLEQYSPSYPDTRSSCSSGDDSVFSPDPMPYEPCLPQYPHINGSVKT
Sequence of FGFR3 (P22607 23-806): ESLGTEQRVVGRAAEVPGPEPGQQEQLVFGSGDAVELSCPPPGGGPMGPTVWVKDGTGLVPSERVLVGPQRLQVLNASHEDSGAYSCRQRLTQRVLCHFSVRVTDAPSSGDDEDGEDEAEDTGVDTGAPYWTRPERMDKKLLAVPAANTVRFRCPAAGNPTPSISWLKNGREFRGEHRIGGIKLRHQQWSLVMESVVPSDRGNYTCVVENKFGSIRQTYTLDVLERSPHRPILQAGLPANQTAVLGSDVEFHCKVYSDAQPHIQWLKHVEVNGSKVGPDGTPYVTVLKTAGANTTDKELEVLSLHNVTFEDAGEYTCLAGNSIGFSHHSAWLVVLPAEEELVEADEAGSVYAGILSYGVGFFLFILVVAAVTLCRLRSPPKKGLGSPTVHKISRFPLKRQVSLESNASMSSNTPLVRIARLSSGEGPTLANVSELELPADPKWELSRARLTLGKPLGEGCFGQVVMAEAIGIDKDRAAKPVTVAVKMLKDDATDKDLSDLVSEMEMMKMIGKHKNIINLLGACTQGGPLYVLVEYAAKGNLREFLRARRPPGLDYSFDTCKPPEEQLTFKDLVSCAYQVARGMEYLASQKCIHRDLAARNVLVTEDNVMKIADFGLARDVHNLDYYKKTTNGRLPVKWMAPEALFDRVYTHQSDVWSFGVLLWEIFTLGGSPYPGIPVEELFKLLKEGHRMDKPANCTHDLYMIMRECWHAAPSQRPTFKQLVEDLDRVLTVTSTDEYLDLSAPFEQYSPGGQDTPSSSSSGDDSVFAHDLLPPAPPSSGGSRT
Sequence of FGFR1 (P11362 22-822): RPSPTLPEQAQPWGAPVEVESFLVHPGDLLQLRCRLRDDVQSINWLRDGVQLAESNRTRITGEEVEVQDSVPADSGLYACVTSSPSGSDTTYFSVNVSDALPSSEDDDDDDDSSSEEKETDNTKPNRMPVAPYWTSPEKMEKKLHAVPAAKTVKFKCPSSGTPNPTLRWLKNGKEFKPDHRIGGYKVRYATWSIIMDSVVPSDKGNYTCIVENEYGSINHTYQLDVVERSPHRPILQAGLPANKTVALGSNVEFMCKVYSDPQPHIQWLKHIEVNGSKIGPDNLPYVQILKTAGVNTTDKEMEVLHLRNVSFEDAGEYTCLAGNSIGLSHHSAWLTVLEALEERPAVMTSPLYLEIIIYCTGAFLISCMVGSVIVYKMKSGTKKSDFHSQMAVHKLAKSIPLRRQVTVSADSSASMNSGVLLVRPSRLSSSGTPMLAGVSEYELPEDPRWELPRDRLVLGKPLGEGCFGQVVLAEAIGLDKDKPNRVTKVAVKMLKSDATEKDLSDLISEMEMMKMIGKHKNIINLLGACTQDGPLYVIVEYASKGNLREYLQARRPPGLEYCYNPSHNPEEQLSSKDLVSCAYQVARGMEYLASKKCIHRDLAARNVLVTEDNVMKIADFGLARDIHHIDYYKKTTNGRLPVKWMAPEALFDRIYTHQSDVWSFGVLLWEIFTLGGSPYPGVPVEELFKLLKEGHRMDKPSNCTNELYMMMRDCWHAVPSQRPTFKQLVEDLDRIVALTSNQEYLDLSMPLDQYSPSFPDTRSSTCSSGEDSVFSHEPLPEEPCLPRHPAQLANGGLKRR

COc1cc(OC)c(Cl)c(N2Cc3cnc4[nH]c(C(=O)N5CCN(C)CC5)cc4c3N(C)C2=O)c1 [Example 26, 3-(2-Chloro-3,5-dimethoxyphenyl)-1-methyl-8-[(4-methylpiperazin-1-yl)carbonyl]-1,3,4,7-tetrahydro-2H-pyrrolo[3′,2′:5,6]pyrido[4,3-d]pyrimidin-2-one]
> 7.00: all assays above

COc1cc(OC)c(F)c(N2Cc3cnc4[nH]c(C(=O)NC5CC5)cc4c3N(C)C2=O)c1 [Example 27, N-Cyclopropyl-3-(2-fluoro-3,5-dimethoxyphenyl)-1-methyl-2-oxo-2,3,4,7-tetrahydro-1H-pyrrolo[3′,2′:5,6]pyrido[4,3-d]pyrimidine-8-carboxamide]
> 7.00: all assays above

COc1cc(OC)c(F)c(N2Cc3cnc4[nH]c(C(=O)N5CC(O)C5)cc4c3N(C)C2=O)c1 [Example 28, 3-(2-Fluoro-3,5-dimethoxyphenyl)-8-[(3-hydroxyazetidin-1-yl)carbonyl]-1-methyl-1,3,4,7-tetrahydro-2H-pyrrolo[3′,2′:5,6]pyrido[4,3-d]pyrimidin-2-one]
> 7.00: all assays above

COc1cc(OC)c(F)c(N2Cc3cnc4[nH]c(C(=O)N5CCC(C#N)C5)cc4c3N(C)C2=O)c1 (stereo not drawn) [Example 29, 1-{[3-(2-Fluoro-3,5-dimethoxyphenyl)-1-methyl-2-oxo-2,3,4,7-tetrahydro-1H-pyrrolo[3′,2′:5,6]pyrido[4,3-d]pyrimidin-8-yl]carbonyl}pyrrolidine-3-carbonitrile]
> 7.00: all assays above

COc1cc(OC)c(F)c(N2Cc3cnc4[nH]c(C(=O)N5CCN(C)CC5)cc4c3N(C)C2=O)c1 [Example 30, 3-(2-Fluoro-3,5-dimethoxyphenyl)-1-methyl-8-[(4-methylpiperazin-1-yl)carbonyl]-1,3,4,7-tetrahydro-2H-pyrrolo[3′,2′:5,6]pyrido[4,3-d]pyrimidin-2-one]
> 7.00: all assays above

COc1cc(OC)c(F)c(N2Cc3cnc4[nH]c(C(=O)N5CCCC(O)C5)cc4c3N(C)C2=O)c1 (stereo not drawn) [Example 31, 3-(2-Fluoro-3,5-dimethoxyphenyl)-8-[(3-hydroxypiperidin-1-yl)carbonyl]-1-methyl-1,3,4,7-tetrahydro-2H-pyrrolo[3′,2′:5,6]pyrido[4,3-d]pyrimidin-2-one]
> 7.00: all assays above

COc1cc(OC)c(F)c(N2Cc3cnc4[nH]c(C(=O)N(C)C)cc4c3N(C)C2=O)c1 [Example 34, 3-(2-Fluoro-3,5-dimethoxyphenyl)-N,N,1-trimethyl-2-oxo-2,3,4,7-tetrahydro-1H-pyrrolo[3′,2′:5,6]pyrido[4,3-d]pyrimidine-8-carboxamide]
> 7.00: all assays above

COc1cc(OC)c(F)c(N2Cc3cnc4[nH]c(C(=O)N(C)C)cc4c3N(C)C2=O)c1F [Example 35, 3-(2,6-Difluoro-3,5-dimethoxyphenyl)-N,N,1-trimethyl-2-oxo-2,3,4,7-tetrahydro-1H-pyrrolo[3′,2′:5,6]pyrido[4,3-d]pyrimidine-8-carboxamide]
> 7.00: all assays above

COc1cc(OC)c(F)c(N2Cc3cnc4c(c3N(C)C2=O)CC(=O)N4)c1F [Example 37, 3-(2,6-Difluoro-3,5-dimethoxyphenyl)-1-methyl-3,4,7,9-tetrahydro-1H-pyrrolo[3′,2′:5,6]pyrido[4,3-d]pyrimidine-2,8-dione]
> 7.00: all assays above

COc1cc(OC)c(F)c(N2Cc3cnc4ccsc4c3N(C)C2=O)c1F [Example 38, 3-(2,6-Difluoro-3,5-dimethoxyphenyl)-1-methyl-3,4-dihydrothieno[2′,3′:5,6]pyrido[4,3-d]pyrimidin-2(1H)-one]
> 7.00: all assays above

COc1cc(OC)c(F)c(N2Cc3cnc4[nH]c(C5CCOCC5)cc4c3N(C)C2=O)c1F [Example 39, 3-(2,6-Difluoro-3,5-dimethoxyphenyl)-1-methyl-8-(tetrahydro-2H-pyran-4-yl)-1,3,4,7-tetrahydro-2H-pyrrolo[3′,2′:5,6]pyrido[4,3-d]pyrimidin-2-one]
> 7.00: all assays above

COc1cc(OC)c(F)c(N2Cc3cnc4[nH]c(C(=O)N5CCN(C)CC5)cc4c3N(C)C2=O)c1F [Example 40, 3-(2,6-Difluoro-3,5-dimethoxyphenyl)-1-methyl-8-[(4-methylpiperazin-1-yl)carbonyl]-1,3,4,7-tetrahydro-2H-pyrrolo[3′,2′:5,6]pyrido[4,3-d]pyrimidin-2-one]
> 7.00: all assays above

COc1cc(OC)c(F)c(N2Cc3cnc4[nH]c(C(=O)N5CCOCC5)cc4c3N(C)C2=O)c1F [Example 41, 3-(2,6-Difluoro-3,5-dimethoxyphenyl)-1-methyl-8-(morpholin-4-ylcarbonyl)-1,3,4,7-tetrahydro-2H-pyrrolo[3′,2′:5,6]pyrido[4,3-d]pyrimidin-2-one]
> 7.00: all assays above

COc1cc(OC)c(F)c(N2Cc3cnc4[nH]c(C(=O)N5CCC(F)(F)CC5)cc4c3N(C)C2=O)c1F [Example 42, 3-(2,6-Difluoro-3,5-dimethoxyphenyl)-8-[(4,4-difluoropiperidin-1-yl)carbonyl]-1-methyl-1,3,4,7-tetrahydro-2H-pyrrolo[3′,2′:5,6]pyrido[4,3-d]pyrimidin-2-one]
> 7.00: all assays above

COc1cc(OC)c(F)c(N2Cc3cnc4[nH]cc(-c5cnn(C)c5)c4c3N(C)C2=O)c1F [Example 43, 3-(2,6-Difluoro-3,5-dimethoxyphenyl)-1-methyl-9-(1-methyl-1H-pyrazol-4-yl)-1,3,4,7-tetrahydro-2H-pyrrolo[3′,2′:5,6]pyrido[4,3-d]pyrimidin-2-one]
> 7.00: all assays above

COc1cc(OC)c(F)c(N2Cc3cnc4[nH]ccc4c3N(CCO)C2=O)c1F [Example 44, 3-(2,6-Difluoro-3,5-dimethoxyphenyl)-1-(2-hydroxyethyl)-1,3,4,7-tetrahydro-2H-pyrrolo[3′,2′:5,6]pyrido[4,3-d]pyrimidin-2-one]
> 7.00: all assays above

COc1cc(OC)c(F)c(N2Cc3cnc4[nH]ccc4c3N(C3CC3)C2=O)c1F [Example 45, 1-Cyclopropyl-3-(2,6-difluoro-3,5-dimethoxyphenyl)-1,3,4,7-tetrahydro-2H-pyrrolo[3′,2′:5,6]pyrido[4,3-d]pyrimidin-2-one]
> 7.00: all assays above

COc1cc(OC)c(F)c(N2Cc3cnc4[nH]ccc4c3N(C3CCOCC3)C2=O)c1F [Example 46, 3-(2,6-Difluoro-3,5-dimethoxyphenyl)-1-(tetrahydro-2H-pyran-4-yl)-1,3,4,7-tetrahydro-2H-pyrrolo[3′,2′:5,6]pyrido[4,3-d]pyrimidin-2-one]
> 7.00: all assays above

COc1cc(OC)c(F)c(N2Cc3cnc4[nH]ccc4c3N(c3ccccc3)C2=O)c1F [Example 47, 3-(2,6-difluoro-3,5-dimethoxyphenyl)-1-phenyl-1,3,4,7-tetrahydro-2H-pyrrolo[3′,2′:5,6]pyrido[4,3-d]pyrimidin-2-one]
> 7.00: all assays above

COc1cc(OC)c(F)c(N2Cc3cnc4c(c3N(C3CC3)C2=O)CC(=O)N4)c1F [Example 48, 1-Cyclopropyl-3-(2,6-difluoro-3,5-dimethoxyphenyl)-3,4,7,9-tetrahydro-1H-pyrrolo[3′,2′:5,6]pyrido[4,3-d]pyrimidine-2,8-dione]
> 7.00: all assays above

CCN1C(=O)N(c2c(F)c(OC)cc(OC)c2F)Cc2cnc3c(c21)CC(=O)N3 [Example 49, 3-(2,6-Difluoro-3,5-dimethoxyphenyl)-1-ethyl-3,4,7,9-tetrahydro-1H-pyrrolo[3′,2′:5,6]pyrido[4,3-d]pyrimidine-2,8-dione]
> 7.00: all assays above

COc1cc(OC)c(F)c(N2Cc3cnc4c(c3N(CC3CC3)C2=O)CC(=O)N4)c1F [Example 50, 1-(Cyclopropylmethyl)-3-(2,6-difluoro-3,5-dimethoxyphenyl)-3,4,7,9-tetrahydro-1H-pyrrolo[3′,2′:5,6]pyrido[4,3-d]pyrimidine-2,8-dione]
> 7.00: all assays above

COc1cc(OC)c(F)c(N2Cc3cnc4[nH]ncc4c3N(C)C2=O)c1F [Example 51, 3-(2,6-Difluoro-3,5-dimethoxyphenyl)-1-methyl-1,3,4,7-tetrahydro-2H-pyrazolo[4′,3′:5,6]pyrido[4,3-d]pyrimidin-2-one]
> 7.00: all assays above

COc1cc(OC)c(F)c(N2Cc3cnc4[nH]nc(C)c4c3N(C)C2=O)c1F [Example 52, 3-(2,6-Difluoro-3,5-dimethoxyphenyl)-1,9-dimethyl-1,3,4,7-tetrahydro-2H-pyrazolo[4′,3′:5,6]pyrido[4,3-d]pyrimidin-2-one]
> 7.00: all assays above
